Marks after values point to notes of the source that are not given here.
Assays:
male Swiss mice [1] = assay: horizontal wire test (myorelaxation); type: in vivo
Procedure: (§1) In all in vivo tests male Swiss mice of 28-30 g were used. The animals were injected i.p. with vehicle, or a solution of the drug, or fraction, 20 min before the assay. The assays were performed in mice i.p. injected with an amount of each fraction equivalent to that obtained from 1 g of dry Valeriana wallichii powder (see Table 3), 20 min before the test. In the case of the remaining aqueous solution (see Figure 2) it was injected at the maximum tolerated dose which was equivalent to that obtained from only 12 mg of dry Valeriana wallichii powder. This low dosage explains the absence of activity recorded in Table 4.
(§2) The following tests were used: spontaneous ambulatory activity counts in an Opto-Varimex apparatus that optically detects and measures locomotor activity; the Hole-board, a well-known test to assay for the sedative behavior (6); and the horizontal wire test to detect myorelaxation as described in detail in the literature (7).
(§3) Mean ±SEM of locomotor activity registered during 5 min session in an Opto-Varimex apparatus and performance of mice in the holeboard test. Wire test was performed after two trials and was registered the number of animals grasped the wire for 3 seconds. Vehicle or 6-methylapigenin were ip administered 20 min before tests. No significant differences were observed using the Student's t test at p>0.05. Table 9 - Anxiolytic effect of 6-methylapigenin measured in the plus-maze test

mice [2] = assay: sodium thiopental-induced sleeping time; type: in vivo
Procedure: The effect of the active components in fraction H of Table 3 (ACN 50%, 23-27) and that of the aqueous remaining solution (Table 3) were tested in mice by i.p. administration. The doses were 2 mg per mouse for fraction H and 5 mg per mouse for the aqueous remaining solution fraction B. A small amount of conventional anesthetic (30 mg/kg of thiopental sodium - Biochemie, GmbH, Kundl, Austria) was used to induce a slight sleeping condition in the mice which were monitored to detect any possible enhancement of the sleeping condition by the previous injection of the novel compounds.
Median (interquartile range) of sleeping time of mice given a sodium thiopental i.p. administration (30 mg/kg) 20 min after an i.p. injection of vehicle or 6-methylapigenin. The sleeping time was measured as the time spent between disappearance and reappearance of righting reflex. Table 8 - Effect in different behavioral tests of 6-methylapigenin (sedation tests)

[3] = tested on: BDZ-bs (benzodiazepine binding site in GABAA brain receptor); assay: BDZ-bs binding assay ([3H]-FNZ binding to cerebral cortical membranes); design: species or system rat
Procedure: In vitro binding assays were carried out with various receptors as well as in vivo tests for sedative activity on the various fractions A-K recovered in Example 1 using the known procedures described in detail in the literature for the following receptors: BDZ-bs (benzodiazepine binding site in GABAA brain receptor) (1); 5-hydroxytriptamine-type 1A (5HT1A) (2); 5HT2 (3); AMPA glutamatergic (4); adenosine 1 (5) . In vivo sedation activity was measured by the Hole-board test (6).
The presence of BDZ-bs ligands in the fractions obtained at the end of the preparative fractionation scheme described in Figure 2 was checked by the BDZ-bs binding assay as described in Example 2.
No BDZ-bs ligands were found in the eluates obtained with 20 %, 30 % and 80 % ACN, but they were present in those obtained with 40 % and 50 % ACN. The BDZ-bs ligands distribution obtained is shown in Figure 3 in which the percentage of binding inhibition of [^3H]-FNZ to rat cerebral cortical membranes (averages of duplicated measurements), is shown for 0.05 mL aliquots of the indicated fractions. (Note: Fractions 1-5, 6-10 and 28-32 were collected in bulk; 40 % and 50 % eluates were collected as separate 100 mL fractions. The arrows inside the graph indicate the pools made). […]

male Swiss mice [4] = assay: spontaneous locomotor activity (Opto-Varimex apparatus); type: in vivo; details: for Locomotor Total activity: ambulatory locomotor activity; for Locomotor Activity Total / Locomotor Activity ambulatory: 4 mg/kg, decrement relative to vehicle values
Procedure: as §1, §2, §3

mice [5] = assay: elevated plus-maze test (anxiolysis); type: in vivo; details: for % open arm entries / % time spent in open arms / arm entries: mice, mean ±SEM
Excerpt: Anti-anxiety as discussed in the present application is based on the fear that mice have for open spaces i.e. the elevated plus-maze assay.

BDZ-bs = assay: GABA-shift of [3H]-FNZ displacement curves; type: binding; details: for GABA-shift: [3H]-FNZ binding to cortical brain membranes in the presence or absence of 100 µM GABA, n= 3
male Swiss mice [6] = assay: Hole-board test (sedation); type: in vivo; details: for Hole-board test N° of Head- dips / Hole-board test N° of rearings / Hole-board test Time head dipping: mice
[7] = 10 mg/kg ip 20 min before test, 5 min session, mean ±SEM
[8] = 0.3 mg/kg ip 20 min before test
[9] = 10 mg/kg ip 20 min before test, mean ±SEM
[10] = mice, 1 mg/kg i.p. 20 min before sodium thiopental 30mg/kg i.p. (Table 20)
[11] = mice, 4 mg/kg i.p. 20 min before sodium thiopental 30 mg/kg i.p. (Table 10)
[12] = mice, 9 mg/kg i.p. 20 min before sodium thiopental 30 mg/kg i.p. (Table 10)
[13] = 4 mg/kg, decrement relative to vehicle values
[14] = mice, hesperidin 2 mg/kg i.p. 20 min before sodium thiopental 30mg/kg i.p. (Table 20)

Cc1c(O)cc2oc(-c3ccc(O)cc3)cc(=O)c2c1O (single isomer, unassigned) [6-methylapigenin]
Wire (male Swiss mice [1]; 10 mg/kg ip, number of animals that grasped the wire for 3 seconds): 5/5 | Sleeping time Median (mice [2]; mice, 6-methylapigenin 1mg/kg (Table 18)): 0 min | Sleeping time Median (mice [2]; mice, 6-methylapigenin 1 mg/kg i.p. 20 min before sodium thiopental 30 mg/kg i.p. (Table 12)): 0 min | Sleeping time (min) median values (mice [2]; mice, i.p., 1 mg/kg, 20 min before sodium thiopental 30 mg/kg i.p. (Table 7)): 0 min | effect on sleeping time (mice [2]; up to 1 mg/kg, mice receiving a sub-hypnotic dose of thiopental): does not affect the sleeping time | Scatchard analysis of saturation curves: type of interaction ([3]; [3H] FNZ saturation curves, decline in apparent affinity without changes in Bmax): competitive interaction | Ki ([3]; n= 5 (ligand 1), n= 3 (ligand 2)): 500 ± 170 nM | Locomotor Total activity (male Swiss mice [4]; 0.3 mg/kg ip 20 min before test, 5 min session, mean ±SEM): 410±36 | Locomotor Total activity (male Swiss mice [4]; 1 mg/kg ip 20 min before test, 5 min session, mean ±SEM): 463±64 | Ambulatory locomotor activity (male Swiss mice [4]; [7]): 395±43 | Total Locomotor Activity (male Swiss mice [4]; [7]): 552±55 | anxiolytic properties in the plus-maze assay (mice [5]; dose of 1 mg/kg in mice): clear anxiolytic properties | % open arm entries (mice [5]; [8]): 48±4% | % time spent in open arms (mice [5]; [8]): 42±4% | arm entries (mice [5]; [8]): 17±2 | % open arm entries (mice [5]; 1 mg/kg ip 20 min before test): 60±6 % | % time spent in open arms (mice [5]; 1 mg/kg ip 20 min before test): 58±5 % | arm entries (mice [5]; 1 mg/kg ip 20 min before test): 14±2 | GABA-shift (BDZ-bs): 1.6-2.0 | behaviour at the BDZ-bs from GABA-shift (BDZ-bs; presence or absence of 100 µM GABA): behaves as an agonist | Hole-board test N° of Head- dips (male Swiss mice [6]; [9]): 7±0.5 | Hole-board test N° of rearings (male Swiss mice [6]; [9]): 28±3 | Hole-board test Time head dipping (male Swiss mice [6]; [9]): 10±1 | sedative effects (male Swiss mice [6]; up to 10 mg/kg in mice): does not have sedative effects

O=c1cc(-c2ccc(O)cc2)oc2cc(O)cc(O)c12 [Apigenin, reference compound]
Sleeping time Median (mice [2]; [10]): 0 min | Sleeping time Median (min) (mice [2]; mice, 1 mg/kg i.p. 20 min before sodium thiopental 30mg/kg i.p. (Table 20), listed as apigenin): do not produce any sleeping time

O=c1cc(-c2ccccc2)oc2cc(O)cc(O)c12 [Chrysin, reference compound]
Sleeping time Median (mice [2]; [10]): 0 min

COc1ccc([C@@H]2CC(=O)c3c(O)cc(O[C@@H]4O[C@H](CO[C@@H]5O[C@@H](C)[C@H](O)[C@@H](O)[C@H]5O)[C@@H](O)[C@H](O)[C@H]4O)cc3O2)cc1O [Citrus hesperidin, hesperidin, reference compound]
Wire (male Swiss mice [1]; 4 mg/kg): 0 percentage | activity relative to the natural isomer from valeriana (mice [2]; estimated from Table 10, sleeping time in mice): approximately 60% | Sleeping time Median (s) (mice [2]; [11]): 660* s | Sleeping time Median (s) (mice [2]; [12]): 1440** s | Locomotor Activity Total (male Swiss mice [4]): -31 percentage | Locomotor Activity ambulatory (male Swiss mice [4]): -30 percentage | Hole-board test N° of Head- dips (male Swiss mice [6]; [13]): -40 percentage | Hole-board test N° of rearings (male Swiss mice [6]; [13]): -22 percentage | Hole-board test Time head dipping (male Swiss mice [6]; [13]): -44 percentage

COc1ccc([C@@H]2CC(=O)c3c(O)cc(O[C@@H]4O[C@H](CO[C@@H]5O[C@@H](C)[C@H](O)[C@@H](O)[C@H]5O)[C@@H](O)[C@H](O)[C@H]4O)cc3O2)cc1O [Hesperidin]
Sleeping time Median (mice [2]; mice, 4 mg/kg (Table 13)): 20 min | Sleeping time Median (mice [2]; [14]): 3.5 min | Sleeping time Median (min) (mice [2]; [14]): 3.5* min

COc1ccc(-c2cc(=O)c3c(O)cc(O[C@@H]4O[C@H](CO[C@@H]5O[C@@H](C)[C@H](O)[C@@H](O)[C@H]5O)[C@@H](O)[C@H](O)[C@H]4O)cc3o2)cc1 [Linarin, 7-[[6-O-(6-deoxy-α-L-mannopyranosyl)-β-D-glucopyranosyl]oxy]-5-hydroxy-2-(4-methoxyphenyl)-4H-benzopyran-4-one]
dose at which hypnotic activity is evident (mice [2]; estimated from Table 16): 7 mg/kg | Sleeping time Median (mice [2]; mice, 4 mg/kg i.p. 20 min before sodium thiopental 30 mg/kg i.p. (Table 16)): 0 min | Sleeping time Median (min) (mice [2]; mice, 7 mg/kg i.p. 20 min before sodium thiopental 30 mg/kg i.p. (Table 16)): 30** min | Sleeping time Median (min) (mice [2]; mice, 14 mg/kg i.p. 20 min before sodium thiopental 30 mg/kg i.p. (Table 16)): 30** min | Sleeping time Median (mice [2]; mice, linarin 4 mg/kg i.p. 20 min before sodium thiopental 30 mg/kg i.p. (Table 17)): 0 min

CC1=C2[C@H](/C=C(\C)C(=O)O)CC[C@@H](C)[C@H]2CC1 [Valerenic acid, reference compound]
Sleeping time Median (mice [2]; mice, valerenic acid 5 mg/kg (Table 18)): 0 min | Sleeping time Median (mice [2]; mice, valerenic acid 5 mg/kg i.p. 20 min before sodium thiopental 30 mg/kg i.p. (Table 17)): 0 min | Sleeping time Median (mice [2]; mice, valerenic acid 15mg/kg i.p. 20 min before sodium thiopental 30 mg/kg i.p. (Table 17)): 0 min

COc1ccc([C@@H]2CC(=O)c3c(O)cc(O[C@@H]4O[C@H](CO[C@@H]5O[C@@H](C)[C@H](O)[C@@H](O)[C@H]5O)[C@@H](O)[C@H](O)[C@H]4O)cc3O2)cc1O [Valeriana hesperidin, Hesperetin 7-rhamnoglucoside; 4H-1-Benzopyran-4-one, 7-[[6-O-(6-deoxy-alpha-L-mannopyranosyl)-beta-D-glucopyranosyl]oxy]-2,3-dihydro-5-hydroxy-2-(3-hydroxy-4-methoxyphenyl)-, (S)-]
Wire (male Swiss mice [1]; 4 mg/kg): 0 percentage | Sleeping time Median (mice [2]; mice, 1 mg/kg i.p. 20 min before sodium thiopental 30 mg/kg i.p. (Table 10)): 0.583 min | Sleeping time Median (s) (mice [2]; mice, 2 mg/kg i.p. 20 min before sodium thiopental 30 mg/kg i.p. (Table 10)): 197* s | Sleeping time Median (s) (mice [2]; [11]): 1290** s | Sleeping time Median (s) (mice [2]; [12]): 1800** s | Sleeping time Median (s) (mice [2]; mice, hesperidin 2 mg/kg i.p. 20 min before sodium thiopental 30 mg/kg i.p. (Table 12)): 179* s | Sleeping time Median (s) (mice [2]; mice, i.p., Dose 3 (unit not given), 20 min before sodium thiopental 30 mg/kg i.p.): 500** s | Locomotor Activity Total (male Swiss mice [4]): -55** percentage | Locomotor Activity ambulatory (male Swiss mice [4]): -58** percentage | Hole-board test N° of Head- dips (male Swiss mice [6]; [13]): -74** percentage | Hole-board test N° of rearings (male Swiss mice [6]; [13]): -58** percentage | Hole-board test Time head dipping (male Swiss mice [6]; [13]): -81## percentage

CN1C(=O)CN=C(c2ccccc2)c2cc(Cl)ccc21 [diazepam, reference compound]
GABA-shift (BDZ-bs): 2.00 ± 0.10

Source: EP1503771B1, “SEDATIVE MATERIALS AND TREATMENTS” (University of Strathclyde, priority 2002, dated 2003)
